Laboratory results from ChEMBL document CHEMBL1275409, “Antimicrobial-resistant pathogens in intensive care units in Canada: results of the Canadian National Intensive Care Unit (CAN-ICU) study, 2005-2006” (2008).

Legend:
Assay type in all cases: functional
Staphylococcus aureus [1] = assay: Antimicrobial activity against methicillin-resistant Staphylococcus aureus isolated from ICU patient respiratory tract assessed as resistant isolates by broth microdilution method
Staphylococcus aureus [2] = assay: Antimicrobial activity against methicillin-resistant Staphylococcus aureus isolated from ICU patient wound assessed as resistant isolates by broth microdilution method
Staphylococcus aureus [3] = assay: Antimicrobial activity against methicillin-resistant Staphylococcus aureus isolated from ICU patient urine assessed as resistant isolates by broth microdilution method
Staphylococcus aureus [4] = assay: Antimicrobial activity against methicillin-resistant Staphylococcus aureus isolated from ICU patient blood assessed as resistant isolates by broth microdilution method
Staphylococcus aureus [5] = assay: Antimicrobial activity against methicillin-resistant Staphylococcus aureus assessed as resistant isolates by broth microdilution method
Staphylococcus aureus [6] = assay: Antimicrobial activity against methicillin-susceptible Staphylococcus aureus isolated from ICU patient respiratory tract assessed as resistant isolates by broth microdilution method
Staphylococcus aureus [7] = assay: Antimicrobial activity against methicillin-susceptible Staphylococcus aureus isolated from ICU patient wound assessed as resistant isolates by broth microdilution method
Staphylococcus aureus [8] = assay: Antimicrobial activity against methicillin-susceptible Staphylococcus aureus isolated from ICU patient urine assessed as resistant isolates by broth microdilution method
Staphylococcus aureus [9] = assay: Antimicrobial activity against methicillin-susceptible Staphylococcus aureus isolated from ICU patient blood assessed as resistant isolates by broth microdilution method
Staphylococcus aureus [10] = assay: Antimicrobial activity against methicillin-susceptible Staphylococcus aureus assessed as resistant isolates by broth microdilution method
Enterobacter cloacae [11] = assay: Antimicrobial activity against carbapenem-resistant Enterobacter cloacae isolated from ICU patient respiratory tract assessed as resistant isolates by broth microdilution method
Haemophilus influenzae [12] = assay: Antimicrobial activity against Haemophilus influenzae assessed as resistant isolates by broth microdilution method
Haemophilus influenzae [13] = assay: Antimicrobial activity against Haemophilus influenzae isolated from ICU patient blood assessed as resistant isolates by broth microdilution method
Haemophilus influenzae [14] = assay: Antimicrobial activity against Haemophilus influenzae isolated from ICU patient wound assessed as resistant isolates by broth microdilution method
Haemophilus influenzae [15] = assay: Antimicrobial activity against Haemophilus influenzae isolated from ICU patient respiratory tract assessed as resistant isolates by broth microdilution method
Enterobacter cloacae [16] = assay: Antimicrobial activity against carbapenem-resistant Enterobacter cloacae isolated from ICU patient wound assessed as resistant isolates by broth microdilution method
Enterobacter cloacae [17] = assay: Antimicrobial activity against carbapenem-resistant Enterobacter cloacae isolated from ICU patient urine assessed as resistant isolates by broth microdilution method
Enterobacter cloacae [18] = assay: Antimicrobial activity against carbapenem-resistant Enterobacter cloacae isolated from ICU patient blood assessed as resistant isolates by broth microdilution method
Enterobacter cloacae [19] = assay: Antimicrobial activity against carbapenem-resistant Enterobacter cloacae assessed as resistant isolates by broth microdilution method
Pseudomonas aeruginosa [20] = assay: Antimicrobial activity against carbapenem-resistant Pseudomonas aeruginosa isolated from ICU patient respiratory tract assessed as resistant isolates by broth microdilution method
Pseudomonas aeruginosa [21] = assay: Antimicrobial activity against carbapenem-resistant Pseudomonas aeruginosa isolated from ICU patient wound assessed as resistant isolates by broth microdilution method
Pseudomonas aeruginosa [22] = assay: Antimicrobial activity against carbapenem-resistant Pseudomonas aeruginosa isolated from ICU patient urine assessed as resistant isolates by broth microdilution method
Pseudomonas aeruginosa [23] = assay: Antimicrobial activity against carbapenem-resistant Pseudomonas aeruginosa isolated from ICU patient blood assessed as resistant isolates by broth microdilution method
Pseudomonas aeruginosa [24] = assay: Antimicrobial activity against carbapenem-resistant Pseudomonas aeruginosa assessed as resistant isolates by broth microdilution method
Klebsiella pneumoniae [25] = assay: Antimicrobial activity against ESBL producing Klebsiella pneumoniae isolated from ICU patient respiratory tract assessed as resistant isolates by broth microdilution method
Klebsiella pneumoniae [26] = assay: Antimicrobial activity against ESBL producing Klebsiella pneumoniae isolated from ICU patient wound assessed as resistant isolates by broth microdilution method
Klebsiella pneumoniae [27] = assay: Antimicrobial activity against ESBL producing Klebsiella pneumoniae isolated from ICU patient urine assessed as resistant isolates by broth microdilution method
Klebsiella pneumoniae [28] = assay: Antimicrobial activity against ESBL producing Klebsiella pneumoniae isolated from ICU patient blood assessed as resistant isolates by broth microdilution method
Klebsiella pneumoniae [29] = assay: Antimicrobial activity against ESBL producing Klebsiella pneumoniae assessed as resistant isolates by broth microdilution method
Escherichia coli [30] = assay: Antimicrobial activity against CTX-M ESBL producing Escherichia coli isolated from ICU patient respiratory tract assessed as resistant isolates by broth microdilution method
Escherichia coli [31] = assay: Antimicrobial activity against CTX-M ESBL producing Escherichia coli isolated from ICU patient wound assessed as resistant isolates by broth microdilution method
Escherichia coli [32] = assay: Antimicrobial activity against CTX-M ESBL producing Escherichia coli isolated from ICU patient urine assessed as resistant isolates by broth microdilution method
Escherichia coli [33] = assay: Antimicrobial activity against CTX-M ESBL producing Escherichia coli isolated from ICU patient blood assessed as resistant isolates by broth microdilution method
Escherichia coli [34] = assay: Antimicrobial activity against CTX-M ESBL producing Escherichia coli assessed as resistant isolates by broth microdilution method
Streptococcus pneumoniae [35] = assay: Antimicrobial activity against penicillin-resistant Streptococcus pneumoniae isolated from ICU patient respiratory tract assessed as resistant isolates by broth microdilution method
Streptococcus pneumoniae [36] = assay: Antimicrobial activity against penicillin-resistant Streptococcus pneumoniae isolated from ICU patient wound assessed as resistant isolates by broth microdilution method
Streptococcus pneumoniae [37] = assay: Antimicrobial activity against penicillin-resistant Streptococcus pneumoniae isolated from ICU patient blood assessed as resistant isolates by broth microdilution method
Streptococcus pneumoniae [38] = assay: Antimicrobial activity against penicillin-resistant Streptococcus pneumoniae assessed as resistant isolates by broth microdilution method
[39] = test system: Staphylococcus epidermidis; assay: Antimicrobial activity against methicillin-resistant Staphylococcus epidermidis isolated from ICU patient wound assessed as resistant isolates by broth microdilution method
[40] = test system: Staphylococcus epidermidis; assay: Antimicrobial activity against methicillin-resistant Staphylococcus epidermidis isolated from ICU patient urine assessed as resistant isolates by broth microdilution method
[41] = test system: Staphylococcus epidermidis; assay: Antimicrobial activity against methicillin-resistant Staphylococcus epidermidis isolated from ICU patient blood assessed as resistant isolates by broth microdilution method
[42] = test system: Staphylococcus epidermidis; assay: Antimicrobial activity against methicillin-resistant Staphylococcus epidermidis assessed as resistant isolates by broth microdilution method
[43] = test system: Staphylococcus epidermidis; assay: Antimicrobial activity against methicillin-susceptible Staphylococcus epidermidis isolated from ICU patient respiratory tract assessed as resistant isolates by broth microdilution method
[44] = test system: Staphylococcus epidermidis; assay: Antimicrobial activity against methicillin-susceptible Staphylococcus epidermidis isolated from ICU patient wound assessed as resistant isolates by broth microdilution method
[45] = test system: Staphylococcus epidermidis; assay: Antimicrobial activity against methicillin-susceptible Staphylococcus epidermidis isolated from ICU patient urine assessed as resistant isolates by broth microdilution method
[46] = test system: Staphylococcus epidermidis; assay: Antimicrobial activity against methicillin-susceptible Staphylococcus epidermidis isolated from ICU patient blood assessed as resistant isolates by broth microdilution method
[47] = test system: Staphylococcus epidermidis; assay: Antimicrobial activity against methicillin-susceptible Staphylococcus epidermidis assessed as resistant isolates by broth microdilution method

How did the Activity (Staphylococcus aureus [1]) turn out when `C[C@@H](O)[C@H]1C(=O)N2C(C(=O)O)=C(S[C@@H]3CN[C@H](C(=O)N(C)C)C3)[C@H](C)[C@H]12` [MEROPENEM] was run?
Its Activity is 100%.

And the Activity (Staphylococcus aureus [2])?
Its Activity is 100%.

What about the Activity (Staphylococcus aureus [3]) of the same compound?
Its Activity is 100%.

What about the Activity (Staphylococcus aureus [4]) of the same compound?
Its Activity is 100%.

What about the Activity (Staphylococcus aureus [5]) of the same compound?
Its Activity is 100%.

What about the Activity (Staphylococcus aureus [6]) of the same compound?
Its Activity is 0%.

What about the Activity (Staphylococcus aureus [7]) of the same compound?
The Activity was 0%.

And the Activity (Staphylococcus aureus [8])?
Its Activity is 0%.

What about the Activity (Staphylococcus aureus [9]) of the same compound?
The Activity was 0%.

And the Activity (Staphylococcus aureus [10])?
Its Activity is 0%.

What about the Activity (Enterobacter cloacae [11]) of the same compound?
Its Activity is 0%.

What about the Activity (Haemophilus influenzae [12]) of the same compound?
Its Activity is 0%.

And the Activity (Haemophilus influenzae [13])?
Its Activity is 0%.

What about the Activity (Haemophilus influenzae [14]) of the same compound?
Its Activity is 0%.

And the Activity (Haemophilus influenzae [15])?
The Activity was 0%.

What about the Activity (Enterobacter cloacae [16]) of the same compound?
Its Activity is 0%.

What about the Activity (Enterobacter cloacae [17]) of the same compound?
The Activity was 0%.

And the Activity (Enterobacter cloacae [18])?
Its Activity is 0%.

And the Activity (Enterobacter cloacae [19])?
Its Activity is 0%.

And the Activity (Pseudomonas aeruginosa [20])?
The Activity was 0%.

And the Activity (Pseudomonas aeruginosa [21])?
Its Activity is 0%.

What about the Activity (Pseudomonas aeruginosa [22]) of the same compound?
The Activity was 0%.

What about the Activity (Pseudomonas aeruginosa [23]) of the same compound?
The Activity was 0%.

And the Activity (Pseudomonas aeruginosa [24])?
The Activity was 0%.

What about the Activity (Klebsiella pneumoniae [25]) of the same compound?
The Activity was 12.5%.

And the Activity (Klebsiella pneumoniae [26])?
Its Activity is 18.9%.

What about the Activity (Klebsiella pneumoniae [27]) of the same compound?
Its Activity is 17.8%.

What about the Activity (Klebsiella pneumoniae [28]) of the same compound?
The Activity was 9.1%.

What about the Activity (Klebsiella pneumoniae [29]) of the same compound?
The Activity was 13.6%.

What about the Activity (Escherichia coli [30]) of the same compound?
Its Activity is 0%.

What about the Activity (Escherichia coli [31]) of the same compound?
The Activity was 0%.

And the Activity (Escherichia coli [32])?
The Activity was 0%.

What about the Activity (Escherichia coli [33]) of the same compound?
Its Activity is 0%.

And the Activity (Escherichia coli [34])?
The Activity was 0%.

What about the Activity (Streptococcus pneumoniae [35]) of the same compound?
Its Activity is 0.5%.

And the Activity (Streptococcus pneumoniae [36])?
The Activity was 0%.

And the Activity (Streptococcus pneumoniae [37])?
Its Activity is 0%.

And the Activity (Streptococcus pneumoniae [38])?
The Activity was 0.4%.

What about the Activity [39] of the same compound?
The Activity was 100%.

And the Activity [40]?
Its Activity is 100%.

What about the Activity [41] of the same compound?
Its Activity is 100%.

What about the Activity [42] of the same compound?
Its Activity is 100%.

What about the Activity [43] of the same compound?
The Activity was 0%.

And the Activity [44]?
Its Activity is 29.2%.

What about the Activity [45] of the same compound?
The Activity was 0%.

And the Activity [46]?
The Activity was 1.8%.

What about the Activity [47] of the same compound?
Its Activity is 9.3%.
